Source: ChEMBL document CHEMBL4699634, “Series of Novel and Highly Potent Cyclic Peptide PCSK9 Inhibitors Derived from an mRNA Display Screen and Optimized via Structure-Based Design” (J Med Chem, 2020)
Numbered stars: 1 amine (or outer) side, 2 acyl side, 3 side chain; on linkers, the order of the positions; unused ones are H or OH. Bridge positions count the residues as written; N and C are the ends. Square brackets hold non-standard residues; d marks the D form. Peptide text beside a SMILES is read from it. Trp(5-F) = N[C@@H](Cc1c[nH]c2ccc(F)cc12)C(=O)O; mXylylene(5-F) = Fc1cc(C[*:1])cc(C[*:2])c1; X4 = CC(N[*:1])(C(=O)[*:2])c1cccc2ccccc12; X1 = O=C(CCSCc1cccc(CSCCN[*:1])c1)[*:2]; mXylylene = c1cc(C[*:1])cc(C[*:2])c1; NMeD = CN[C@@H](CC(=O)O)C(=O)O; αMeP = C[C@@]1(C(=O)O)CCCN1; NMeC = CN[C@@H](CS)C(=O)O; Mpa = O=C(O)CCS

Columns and labels:
[1] = molecular target: Proprotein convertase subtilisin/kexin type 9 (Homo sapiens, UniProt Q8NBP7); assay: Inhibition of AlexaFluor647-tagged cyclic peptide binding to avi-tagged-biotinylated human PCSK9 measured after 2 hrs by Lance Streptavidin Europium based FRET assay
Proprotein convertase subtilisin/kexin type 9, sequence (Q8NBP7 31-152 limits assumed): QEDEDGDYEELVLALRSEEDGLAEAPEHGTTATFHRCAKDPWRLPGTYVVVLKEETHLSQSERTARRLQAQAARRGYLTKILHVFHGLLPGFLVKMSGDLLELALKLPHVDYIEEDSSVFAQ
Proprotein convertase subtilisin/kexin type 9, sequence (Q8NBP7 153-692 limits assumed): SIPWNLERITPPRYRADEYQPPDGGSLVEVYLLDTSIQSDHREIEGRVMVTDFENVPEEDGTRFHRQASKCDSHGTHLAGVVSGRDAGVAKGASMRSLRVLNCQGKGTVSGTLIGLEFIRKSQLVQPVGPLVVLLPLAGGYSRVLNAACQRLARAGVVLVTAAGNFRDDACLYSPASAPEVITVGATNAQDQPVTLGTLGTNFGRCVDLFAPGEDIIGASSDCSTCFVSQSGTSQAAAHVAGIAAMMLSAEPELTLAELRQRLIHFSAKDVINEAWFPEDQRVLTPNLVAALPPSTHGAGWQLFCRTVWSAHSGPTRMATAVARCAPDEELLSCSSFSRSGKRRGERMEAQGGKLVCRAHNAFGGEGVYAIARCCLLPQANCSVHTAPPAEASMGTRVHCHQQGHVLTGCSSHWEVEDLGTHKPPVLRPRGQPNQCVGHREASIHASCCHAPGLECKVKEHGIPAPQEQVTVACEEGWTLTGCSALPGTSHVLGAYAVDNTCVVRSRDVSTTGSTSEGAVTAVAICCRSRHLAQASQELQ

[2] = molecular target: Chymotrypsin-like elastase family member 1 (Sus scrofa, UniProt P00772); assay: Enzymatic stability assessed as porcine type 4 pancreatic elastase-mediated compound hydrolysis by measuring parent compound remaining at 100 uM incubated for 1 hr by LC-MS/MS analysis; assay type: ADME; conditions: pig, read-out: Stabilty
Chymotrypsin-like elastase family member 1, sequence (P00772 whole entry): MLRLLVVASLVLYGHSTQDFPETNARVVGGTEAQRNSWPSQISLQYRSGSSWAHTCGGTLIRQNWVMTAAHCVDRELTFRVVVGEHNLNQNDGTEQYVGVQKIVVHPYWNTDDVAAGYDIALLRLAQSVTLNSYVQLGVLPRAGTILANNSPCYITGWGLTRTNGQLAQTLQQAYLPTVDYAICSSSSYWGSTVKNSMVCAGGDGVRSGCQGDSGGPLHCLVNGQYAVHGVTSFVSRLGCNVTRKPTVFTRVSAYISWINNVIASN

[3] = Enzymatic stability assessed as bovine pancreatic trypsin-mediated compound hydrolysis by measuring parent compound remaining at 100 uM incubated for 1 hr by LC-MS/MS analysis; assay type: ADME, Bos taurus; conditions: cattle, read-out: Stabilty
[4] = Half life in C57BL/6 mouse whole blood at 100 uM by LC-MS/MS analysis; assay type: ADME, tissue-based
[5] = Enzymatic stability assessed as porcine pepsin-mediated compound hydrolysis by measuring parent compound remaining at 100 uM incubated for 1 hr by LC-MS/MS analysis; assay type: ADME, Sus scrofa; conditions: pig, read-out: Stabilty
PCSK9/LDLR = PCSK9/LDLR (Homo sapiens, UniProt Q8NBP7); assay: Inhibition of avi-tagged-biotinylated human PCSK9 interaction with His-tagged human LDLR EGFa domain by LANCE Ulight Streptavidin based TR-FRET assay; assay type: protein assay
PCSK9/LDLR, sequence (Q8NBP7 31-152 limits assumed): as the sequence (Q8NBP7 31-152 limits assumed) above
PCSK9/LDLR, sequence (Q8NBP7 153-692 limits assumed): as the sequence (Q8NBP7 153-692 limits assumed) above
PCSK9/LDLR, sequence (P01130 22-860 partner limits assumed): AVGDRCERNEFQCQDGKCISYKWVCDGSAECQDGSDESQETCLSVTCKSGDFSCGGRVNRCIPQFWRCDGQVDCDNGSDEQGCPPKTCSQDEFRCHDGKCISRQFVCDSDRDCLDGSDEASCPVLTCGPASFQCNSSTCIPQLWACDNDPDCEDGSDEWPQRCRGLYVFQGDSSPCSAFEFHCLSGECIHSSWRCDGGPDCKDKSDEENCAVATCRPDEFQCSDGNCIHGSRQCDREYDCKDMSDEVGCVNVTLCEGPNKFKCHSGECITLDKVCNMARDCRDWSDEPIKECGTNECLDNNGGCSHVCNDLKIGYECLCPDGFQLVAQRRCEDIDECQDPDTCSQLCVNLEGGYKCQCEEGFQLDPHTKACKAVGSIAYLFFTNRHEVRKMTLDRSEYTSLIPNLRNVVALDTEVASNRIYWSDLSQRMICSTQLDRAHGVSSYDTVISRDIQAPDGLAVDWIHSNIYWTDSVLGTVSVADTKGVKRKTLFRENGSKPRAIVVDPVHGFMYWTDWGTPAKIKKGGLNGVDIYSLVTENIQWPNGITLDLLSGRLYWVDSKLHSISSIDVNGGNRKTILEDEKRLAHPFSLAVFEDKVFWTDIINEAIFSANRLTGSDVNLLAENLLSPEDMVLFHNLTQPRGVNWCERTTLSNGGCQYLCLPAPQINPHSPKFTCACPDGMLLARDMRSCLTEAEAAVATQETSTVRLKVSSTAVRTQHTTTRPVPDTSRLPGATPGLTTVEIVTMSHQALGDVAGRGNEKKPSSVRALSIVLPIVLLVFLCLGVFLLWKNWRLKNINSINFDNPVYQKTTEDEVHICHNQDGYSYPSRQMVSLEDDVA

Chymotrypsinogen A = Chymotrypsinogen A (Bos taurus, UniProt P00766); assay: Enzymatic stability assessed as bovine pancreatic alpha-chymotrypsin-mediated compound hydrolysis by measuring parent compound remaining at 100 uM incubated for 1 hr by LC-MS/MS analysis; assay type: ADME; conditions: cattle, read-out: Stabilty
[6] = Cytotoxicity against Wistar rat isolated peritoneal cells assessed as reduction in cell viability up to 60 uM measured after 30 mins; assay type: cell-based; conditions: peritoneal macrophage cell, 0.5 h
[7] = Induction of mast cell degranulation in Wistar rat isolated peritoneal cells assessed as effect on histamine release measured after 30 mins; assay type: tissue-based; conditions: Rattus norvegicus, Wistar, Mast cell, 0.5 h; read-out: EC50

Row | Structure (SMILES) | Ki [1] [nM] | Ki (PCSK9/LDLR) [nM] | also measured
1 | COc1ccc(C[C@@H]2NC(=O)[C@H]([C@@H](C)O)NC(=O)[C@@H]3CCCC(=O)NCc4cccc(c4)C[C@H](NC(=O)[C@@H](C)NC(=O)[C@H](C)NC(=O)CCSCc4cccc(c4)CSCCNC(=O)[C@]4(C)CCCN4C2=O)C(=O)N[C@@H](Cc2c[nH]c4ccc(F)cc24)C(=O)N3)cc1 | 44.2 |  | 
2 | C[C@H]1NC(=O)[C@H](CCCCN)NC(=O)CCSCc2cc(F)cc(c2)CSC[C@@H](C(N)=O)NC(=O)[C@]2(C)CCCN2C(=O)[C@H](Cc2ccc(O)cc2)NC(=O)[C@H]([C@@H](C)O)NC(=O)[C@@H]2CCCN2C(=O)[C@H](Cc2c[nH]c3ccc(F)cc23)NC(=O)[C@H](Cc2c[nH]c3ccc(F)cc23)NC1=O ([Mpa]K[dA][Trp(5-F)][Trp(5-F)]PTY[αMeP]C-NH2; linker 1-10 via mXylylene(5-F)) | 11 |  | 
3 | C[C@@H]1NC(=O)CCSCc2cccc(c2)CSC[C@@H](C(N)=O)NC(=O)[C@@H]2CCCN2C(=O)[C@H](Cc2ccc(O)cc2)NC(=O)[C@H](Cc2cnc[nH]2)NC(=O)[C@H](CC(=O)O)NC(=O)[C@H](Cc2c[nH]c3ccc(F)cc23)NC(=O)[C@H](Cc2c[nH]c3ccc(F)cc23)NC(=O)CNC1=O ([Mpa]AG[Trp(5-F)][Trp(5-F)]DHYPC-NH2; linker 1-10 via mXylylene) |  | 392 | remaining at 1 h, 100 µM [2]: 54.9%; remaining at 1 h, 100 µM [3]: 1%; half-life at 100 µM [4]: 1.49 h; remaining at 1 h, 100 µM [5]: 92.5%; remaining at 1 h, 100 µM (Chymotrypsinogen A): 15.5%
4 | COc1ccc(C[C@@H]2NC(=O)[C@H]([C@@H](C)O)NC(=O)[C@@H]3CCCCC(=O)NCc4ccc(cc4)C[C@H](NC(=O)[C@@H](C)NC(=O)[C@H](C)NC(=O)CCSCc4cccc(c4)CSCCNC(=O)[C@]4(C)CCCN4C2=O)C(=O)N[C@@H](Cc2c[nH]c4ccc(F)cc24)C(=O)N3)cc1 | 175 |  | 
5 | COc1ccc(C[C@@H]2NC(=O)[C@H]([C@@H](C)O)NC(=O)[C@@H]3CCCCC(=O)NCc4cccc(c4)C[C@H](NC(=O)[C@@H](C)NC(=O)[C@H](C)NC(=O)CCSCc4cccc(c4)CSCCNC(=O)[C@]4(C)CCCN4C2=O)C(=O)N[C@@H](Cc2c[nH]c4ccc(F)cc24)C(=O)N3)cc1 | 4 |  | 
6 | CC(C)(C)[C@H]1NC(=O)[C@H](CCCCN)NC(=O)CCSCc2cccc(c2)CSCCNC(=O)[C@]2(C)CCCN2C(=O)[C@H](Cc2ccc(O)cc2)NC(=O)[C@H](Cc2cnc[nH]2)NC(=O)[C@H](CC(=O)O)NC(=O)[C@H](Cc2c[nH]c3ccc(F)cc23)NC(=O)[C@H](Cc2c[nH]c3ccc(F)cc23)NC1=O | 4.2 |  | 
7 | C[C@@]12CCCN1C(=O)[C@H](Cc1ccc(O)cc1)NC(=O)[C@H](Cc1cnc[nH]1)NC(=O)[C@H](CC(=O)O)NC(=O)[C@H](Cc1c[nH]c3ccc(F)cc13)NC(=O)[C@H](Cc1c[nH]c3ccc(F)cc13)NC(=O)CNC(=O)[C@H](CCCCN)NC(=O)CCSCc1cccc(c1)CSCCNC2=O (cyclo(DHY[αMeP][X1]KG[Trp(5-F)][Trp(5-F)])) | 4.3 | 26.6 | remaining at 1 h, 100 µM [2]: 46.1%; remaining at 1 h, 100 µM [3]: 0.8%; half-life at 100 µM [4]: 5.56 h; remaining at 1 h, 100 µM [5]: 99.1%; remaining at 1 h, 100 µM (Chymotrypsinogen A): 7.4%
8 | C[C@H]1NC(=O)[C@H](CCC(=O)O)NC(=O)CCSCc2cccc(c2)CSCCNC(=O)[C@]2(C)CCCN2C(=O)[C@H](Cc2ccc(O)cc2)NC(=O)[C@H](Cc2cnc[nH]2)NC(=O)[C@H](CC(=O)O)NC(=O)[C@H](Cc2c[nH]c3ccc(F)cc23)NC(=O)[C@H](Cc2c[nH]c3ccc(F)cc23)NC1=O |  | 202 | Activity [6]: Non-Toxic; EC50 [7]: 1000 nM
9 | COc1ccc(C[C@@H]2NC(=O)[C@H](Cc3cnc[nH]3)NC(=O)[C@H](CC(=O)O)NC(=O)[C@H](Cc3c[nH]c4ccc(F)cc34)NC(=O)[C@H](Cc3c[nH]c4ccc(F)cc34)NC(=O)[C@@H](C)NC(=O)[C@H](CCCCN)NC(=O)CCSCc3cccc(c3)CSCCNC(=O)[C@]3(C)CCCN3C2=O)cc1 | 3.9 |  | 
10 | C[C@@H](O)[C@@H]1NC(=O)[C@@H]2CCCN2C(=O)[C@H](Cc2c[nH]c3ccc(F)cc23)NC(=O)[C@H](Cc2c[nH]c3ccc(F)cc23)NC(=O)CNC(=O)[C@H](CCCCN)NC(=O)CCSCc2cccc(c2)CSC[C@@H](C(N)=O)NC(=O)[C@]2(C)CCCN2C(=O)[C@H](Cc2ccc(O)cc2)NC1=O ([Mpa]KG[Trp(5-F)][Trp(5-F)]PTY[αMeP]C-NH2; linker 1-10 via mXylylene) | 11.7 | 23.9 | remaining at 1 h, 100 µM [2]: 51%; remaining at 1 h, 100 µM [3]: 1.9%; half-life at 100 µM [4]: > 6 h; remaining at 1 h, 100 µM [5]: 95%; remaining at 1 h, 100 µM (Chymotrypsinogen A): 91%
11 | C[C@@]12CCCN1C(=O)[C@H](Cc1ccc(O)cc1)NC(=O)[C@H](Cc1cnc[nH]1)NC(=O)[C@H](CC(=O)O)NC(=O)[C@H](Cc1c[nH]c3ccc(F)cc13)NC(=O)[C@H](Cc1c[nH]c3ccc(F)cc13)NC(=O)[C@@H](C1CCCC1)NC(=O)[C@H](CCCCN)NC(=O)CCSCc1cccc(c1)CSCCNC2=O | 23.1 |  | 
12 | COc1ccc(C[C@@H]2NC(=O)[C@H]([C@@H](C)OC)NC(=O)[C@@H]3CCC(=O)NCc4cccc(c4)C[C@H](NC(=O)[C@@H](C)NC(=O)[C@H](C)NC(=O)CCSCc4cccc(c4)CSCCNC(=O)[C@]4(C)CCCN4C2=O)C(=O)NC(Cc2ccnc4ccc(F)cc24)C(=O)N3C)cc1 (stereo not given in full) | 2.8 |  | 
13 | CN1C(=O)[C@H](Cc2c[nH]c3ccc(F)cc23)NC(=O)[C@H](Cc2c[nH]c3ccc(F)cc23)NC(=O)CNC(=O)[C@H](CCCCN)NC(=O)CCSCc2cccc(c2)CSC[C@@H](C(N)=O)NC(=O)[C@@H]2CCCN2C(=O)[C@H](Cc2ccc(O)cc2)NC(=O)[C@H](Cc2cnc[nH]2)NC(=O)[C@@H]1CC(=O)O ([Mpa]KG[Trp(5-F)][Trp(5-F)][NMeD]HYPC-NH2; linker 1-10 via mXylylene) |  | 12900 | 
14 | CC1(c2cccc3ccccc23)NC(=O)CNC(=O)[C@H](CCCCN)NC(=O)CCSCc2cccc(c2)CSC[C@@H](C(N)=O)NC(=O)[C@@H]2CCCN2C(=O)[C@H](Cc2ccc(O)cc2)NC(=O)[C@H](Cc2cnc[nH]2)NC(=O)[C@H](CC(=O)O)NC(=O)[C@H](Cc2c[nH]c3ccc(F)cc23)NC1=O (stereo not given in full) ([Mpa]KG[X4][Trp(5-F)]DHYPC-NH2; linker 1-10 via mXylylene) |  | 63 | 
15 | CC(=O)N[C@H]1CSCc2cccc(c2)CSC[C@@H](C(N)=O)NC(=O)[C@@H]2CCCN2C(=O)[C@H](Cc2ccc(O)cc2)NC(=O)[C@H](Cc2cnc[nH]2)NC(=O)[C@H](CC(=O)O)NC(=O)[C@H](Cc2c[nH]c3ccccc23)NC(=O)[C@H](Cc2c[nH]c3ccc(F)cc23)NC(=O)CNC(=O)[C@H](CCCCN)NC1=O (Ac-CKG[Trp(5-F)]WDHYPC-NH2; linker 1-10 via mXylylene) |  | 1070 | 
16 | C[C@@H]1NC(=O)[C@@H]2CCCN2C(=O)[C@H](Cc2c[nH]c3ccc(F)cc23)NC(=O)[C@H](Cc2c[nH]c3ccc(F)cc23)NC(=O)CNC(=O)[C@H](CCCCN)NC(=O)CCSCc2cccc(c2)CSC[C@@H](C(N)=O)NC(=O)[C@]2(C)CCCN2C(=O)[C@H](Cc2ccc(O)cc2)NC1=O ([Mpa]KG[Trp(5-F)][Trp(5-F)]PAY[αMeP]C-NH2; linker 1-10 via mXylylene) |  | 88.3 | 
17 | C[C@@H]1NC(=O)[C@H](Cc2c[nH]c3ccc(F)cc23)NC(=O)CNC(=O)[C@H](CCCCN)NC(=O)CCSCc2cccc(c2)CSC[C@@H](C(N)=O)NC(=O)[C@@H]2CCCN2C(=O)[C@H](Cc2ccc(O)cc2)NC(=O)[C@H](Cc2cnc[nH]2)NC(=O)[C@H](CC(=O)O)NC1=O ([Mpa]KG[Trp(5-F)]ADHYPC-NH2; linker 1-10 via mXylylene) |  | > 48000 | 
18 | COc1ccc(C[C@@H]2NC(=O)[C@H]([C@@H](C)O)NC(=O)[C@@H]3CC(=O)NCc4cccc(c4)C[C@H](NC(=O)[C@@H](C)NC(=O)[C@H](C)NC(=O)CCSCc4cccc(c4)CSCCNC(=O)[C@]4(C)CCCN4C2=O)C(=O)N[C@@H](Cc2c[nH]c4ccc(F)cc24)C(=O)N3)cc1 | 285 |  | 
19 | CN1C(=O)[C@@H]2CCCN2C(=O)[C@H](Cc2ccc(O)cc2)NC(=O)[C@H](Cc2cnc[nH]2)NC(=O)[C@H](CC(=O)O)NC(=O)[C@H](Cc2c[nH]c3ccc(F)cc23)NC(=O)[C@H](Cc2c[nH]c3ccc(F)cc23)NC(=O)CNC(=O)[C@H](CCCCN)NC(=O)CCSCc2cccc(c2)CSC[C@H]1C(N)=O ([Mpa]KG[Trp(5-F)][Trp(5-F)]DHYP[NMeC]-NH2; linker 1-10 via mXylylene) |  | > 48000 | 
20 | CCC[C@H]1NC(=O)[C@H](CCCCN)NC(=O)CCSCc2cccc(c2)CSCCNC(=O)[C@]2(C)CCCN2C(=O)[C@H](Cc2ccc(O)cc2)NC(=O)[C@H](Cc2cnc[nH]2)NC(=O)[C@H](CC(=O)O)NC(=O)[C@H](Cc2c[nH]c3ccc(F)cc23)NC(=O)[C@H](Cc2c[nH]c3ccc(F)cc23)NC1=O | 2.7 | 43.5 | 
